The source of these data is patent publication US7557100B2, “Antibacterial agents” (Pfizer Inc., priority 2005, dated 2009).

For one assay, the system named is H. influenzae HI-3542. Description: Microbroth dilution MIC testing against H. influenzae. It counts as cell-based. The following applies: HI3542, H. influenzae 3542, Haemophilus Test Medium, 35° C., 16 to 24 hours, read-out: Minimum Inhibitory Concentration H. influenzae 3542. How it is done:
(§1) In this example, the in vitro antibacterial activity of selected compounds was determined against S. aureus and H. influenzae. Except for clarifying or modifying statements, MIC testing followed procedures recommended by the NCCLS^1-2 or followed the descriptions cited below.
(§2) Bacterial Cultures At least the following organisms are included in the screen: Staphylococcus aureus SA-1 (UC-76) and H. influenzae HI-3542. Incubations were at 35° C. Stock bacterial cultures were maintained on Tryptic Soy Agar containing 5% Sheep Blood (BD, Becton Dickinson Microbiology Systems, Cockeysville, Md.), anaerobes were maintained on Anaerobic Blood Agar plates—CDC Formulation (BD), and fastidious organisms were maintained on Chocolate Agar II Plates (BD). Specific conditions of handling are listed below.
Haemophilus was maintained on Chocolate Agar II Plates at room temperature in a candle jar providing a 3 5% CO2 atmosphere.
(§3) Standardized Organism Inocula Frozen stock cultures were used as the initial source of organisms for performing microbroth dilution MIC testing. Stock cultures were passed on their standard growth medium for at least 1 growth cycle (18 24 hours) prior to their use.
(§4) Most bacteria, unless otherwise noted, were prepared directly from agar plates in 10 mL aliquots of the appropriate broth medium. Bacterial cultures were adjusted to the opacity of a 0.5 McFarland Standard (optical density value of 0.28-0.33 on a Perkin-Elmer Lambda EZ150 Spectrophotometer Wellesley, Mass., set at a wavelength of 600 nm).). The adjusted cultures were diluted 400 fold (0.25 mL inoculum+100 mL broth) in growth media to produce a starting suspension of approximately 5×10^5 colony forming units (CFU)/mL. Unless otherwise noted, bacterial strains were tested in cation adjusted Mueller Hinton Broth (CAMHB).
Haemophilus influenzae strains were grown on Chocolate Agar II Plates and tested in Haemophilus Test Medium (Remel, Lenexa, Kans.).
(§5) Test Compound (“Drug”) Preparation Compounds were solubilized in DMSO. Drug stock solutions were prepared on the day of testing. Drugs were weight corrected for assay content where necessary.
(§6) Drug Dilution Tray Preparation Microbroth dilution stock plates were prepared in two dilution series, 64 to 0.06 μg drug/mL and 0.25 to 0.00025 μg drug/mL. For the high concentration series, 200 μL of stock solution (2 mg/mL) was added to duplicate rows of a 96-well microtiter plate. This was used as the first well in the dilution series. Serial two-fold decremental dilutions were made using a BioMek FX robot (Beckman Coulter Inc., Fullerton, Calif.) with 10 of the remaining 11 wells, each of which contained 100 μL of the appropriate solvent/diluent. Row 12 contained solvent/diluent only and served as the control. For tube one of the low concentration series, 200 μL of an 8 μg/mL stock was added to duplicate rows of a 96-well plate. Serial two-fold dilutions were made as described above.
(§7) Daughter plates were spotted (3.2 μL/well) from the stock plates listed above using the BioMek FX robot and were either used immediately or frozen at −70° C. until use.
(§8) Plate Inoculation Aerobic organisms were inoculated (100 μL volumes) into the thawed plates using the BioMek FX robot. The inoculated plates were placed in stacks of no more than 5 and covered with an empty plate. These plates were incubated 16 to 24 hours in ambient atmosphere according to CLSI guidelines^2.
Reading the Test After inoculation and incubation, the degree of bacterial growth was estimated visually with the aid of a Test Reading Mirror (Dynex Technologies 220 16) in a darkened room with a single light shining directly through the top of the microbroth tray. The MIC was the lowest concentration of drug that prevented macroscopically visible growth under the conditions of the test. Testing was performed in duplicate. When the MIC values in duplicate tests varied by 1 well (2 fold), the lower values were reported. If the MICs varied by 2 dilutions, the middle value was reported. […]

Assay [1] deals with Staphylococcus aureus SA-1 (UC-76). Description: Microbroth dilution MIC testing against S. aureus. It counts as cell-based. Conditions: S. aureus UC76, CAMHB, 35° C., 16 to 24 hours, read-out: Minimum Inhibitory Concentration S. aureus UC76. How it is done: as §1, §2, §3, §4, §5, §6, §7, §8
Reading the Test After inoculation and incubation, the degree of bacterial growth was estimated visually with the aid of a Test Reading Mirror (Dynex Technologies 220 16) in a darkened room with a single light shining directly through the top of the microbroth tray. The MIC was the lowest concentration of drug that prevented macroscopically visible growth under the conditions of the test. Testing was performed in duplicate. When the MIC values in duplicate tests varied by 1 well (2 fold), the lower values were reported. If the MICs varied by 2 dilutions, the middle value was reported. Greater than this 4 fold variance called for the test to be repeated, after which a similar determination was applied to all values.
Background: In broth dilution the organism is exposed to a series of concentrations in liquid medium.

Converted amounts (≈) assume the structure as drawn.

For `C[C@H]1CN2c3c(cc(-c4cnccn4)c(F)c3F)CC3(C(=O)NC(=O)NC3=O)[C@@H]2[C@@H](C)O1` (relative stereo) [Compound 1, rel-(2S,4R,4aR)-9,10-difluoro-2,4-dimethyl-8-pyrazin-2-yl-1,2,4,4a-tetrahydro-2′H,6H-spiro[1,4-oxazino[4,3-a]quinoline-5,5′-pyrimidine]-2′,4′,6′(1′H,3′H)-trione], in the assay with H. influenzae HI-3542, the MIC worked out at 1 µg/mL (≈ 2.26 µM).

For `C[C@H]1CN2c3c(F)cc(-c4cnccn4)cc3CC3(C(=O)NC(=O)NC3=O)[C@@H]2[C@@H](C)O1` (relative stereo) [Compound 15, rel-(2S,4R,4aR)-10-fluoro-2,4-dimethyl-8-pyrazin-2-yl-1,2,4,4a-tetrahydro-2′H,6H-spiro[1,4-oxazino[4,3-a]quinoline-5,5′-pyrimidine]-2′,4′,6′(1′H,3′H)-trione], the MIC in assay [1] came to 1 µg/mL (≈ 2.35 µM); with H. influenzae HI-3542, 4 µg/mL (≈ 9.4 µM).

Consider `C[C@H]1CN2c3c(cc(-c4cnccn4)c(N4CCOCC4)c3F)CC3(C(=O)NC(=O)NC3=O)[C@@H]2[C@@H](C)O1` (relative stereo) [Compound 16, rel-(2S,4R,4aR)-10-fluoro-2,4-dimethyl-9-morpholin-4-yl-8-pyrazin-2-yl-1,2,4,4a-tetrahydro-2′H,6H-spiro[1,4-oxazino[4,3-a]quinoline-5,5′-pyrimidine]-2′,4′,6′(1′H,3′H)-trione], for which the MIC (in assay [1]; in the assay on H. influenzae HI-3542) was over 64 µg/mL each time.

As to `COCCOc1c(-c2cnccn2)cc2c(c1F)N1C[C@H](C)O[C@H](C)[C@H]1C1(C2)C(=O)NC(=O)NC1=O` (relative stereo) [Compound 17, rel-(2S,4R,4aR)-10-fluoro-9-(2-methoxyethoxy)-2,4-dimethyl-8-pyrazin-2-yl-1,2,4,4a-tetrahydro-2′H,6H-spiro[1,4-oxazino[4,3-a]quinoline-5,5′-pyrimidine]-2′,4′,6′(1′H,3′H)-trione], the MIC (in assay [1]; in the assay on H. influenzae HI-3542) was over 64 µg/mL each time. For `C[C@H]1CN2c3c(cc(-c4cnccn4)c(OCCF)c3F)CC3(C(=O)NC(=O)NC3=O)[C@@H]2[C@@H](C)O1` (relative stereo) [Compound 18, rel-(2S,4R,4aR)-10-fluoro-9-(2-fluoroethoxy)-2,4-dimethyl-8-pyrazin-2-yl-1,2,4,4a-tetrahydro-2′H,6H-spiro[1,4-oxazino[4,3-a]quinoline-5,5′-pyrimidine]-2′,4′,6′(1′H,3′H)-trione], the MIC (in assay [1]; in the assay on H. influenzae HI-3542) was over 64 µg/mL each time. Turning to `C[C@H]1CN2c3cc(F)c(-c4cnccn4)cc3CC3(C(=O)NC(=O)NC3=O)[C@@H]2[C@@H](C)O1` (relative stereo) [Compound 19, rel-(2S,4R,4aR)-9-dluoro-2,4-dimethyl-8-pyrazin-2-yl-1,2,4,4a-tetrahydro-2′H,6H-spiro[1,4-oxazino[4,3-a]quinoline-5,5′-pyrimidine]-2′,4′,6′(1′H,3′H)-trione], the MIC (in assay [1]; in the assay with H. influenzae HI-3542) was 2 µg/mL (≈ 4.7 µM) in each case.

For `C[C@H]1CN2c3ccc(-c4cnccn4)cc3CC3(C(=O)NC(=O)NC3=O)[C@@H]2[C@@H](C)O1` (relative stereo) [Compound 20, rel-(2S,4R,4aR)-2,4-dimethyl-8-pyrazin-2-yl-1,2,4,4a-tetrahydro-2′H,6H-spiro[1,4-oxazino[4,3-a]quinoline-5,5′-pyrimidine]-2′,4′,6′(1′H,3′H)-trione], the MIC is 4 µg/mL (≈ 9.82 µM) in assay [1] and 2 µg/mL (≈ 4.91 µM) in the assay with H. influenzae HI-3542.

For `C[C@H]1CN2c3c(cc(-c4cnccn4)c(F)c3F)CC3(C(=O)NC(=O)NC3=O)[C@@H]2[C@@H](C)O1` [Compound 3, (2S,4R,4aR)-9,10-difluoro-2,4-dimethyl-8-pyrazin-2-yl-1,2,4,4a-tetrahydro-2′H,6H-spiro[1,4-oxazino[4,3-a]quinoline-5,5′-pyrimidine]-2′,4′,6′(1′H,3′H)-trione], the MIC in the assay with H. influenzae HI-3542 is over 64 µg/mL.
